We go through one molecule from US12173042B2, “Methods of treating cancers with CT45 targeted therapies” (The University of Chicago, priority 2016, dated 2024).

Test [1] relates to OVCAR5-V5 (control plasmid) tumors. As to the kind of experiment: Subcutaneous tumor growth in nude mice, control vector tumors. The format is in vivo, athymic nude mice. The conditions noted are these: carboplatin 20 mg/kg tail vein 1 time/week, control cell line. On the procedure: (§1) 5 million OVCAR5-V5 or OVCAR5-V5-CT45 cells suspended in a 1:2 solution of serum-free media to growth-factor reduced matrigel were injected subcutaneously into the right and left flanks respectively, of 8 week old female athymic nude mice. After 5 days, treatment was administered through the tail vein 1 time/week at 20 mg/kg. Sterile water served as the control treatment. Tumor growth was measured every 2-3 days using calipers until the tumor neared 1 cm3 and was measured daily. Once the tumor reached 1 cm3 the mouse was sacrificed. 4 mice were removed from the study early due to ulcerations of the skin. All experiments were approved by the Institutional Animal Care and Use Committee of the University of Chicago.
as §1, with “Five million” for “5 million”, “8 weeks” for “8 week”, “1 cm^3” for “1 cm3”, “skin. […]” for “skin. All experiments were approved by the Institutional Animal Care and Use Committee of the University of Chicago.”

A further test relates to OVCAR5-V5-CT45 cells. As to the kind of experiment: Nuclear size (DAPI). The conditions noted are these: cells expressing CT45, day 5, carboplatin 5 μM. Format: cell-based, human. On the procedure:
FIG. 13A-I. CT45 interferes with chromatin dynamics after DNA damage. A, Western blot analysis of OVCAR5 and OVKATE cell line pairs treated with carboplatin (5 μM). Day 3. B, Immunofluorescence staining of KAP1-S824 γH2AX and DAPI in OVCAR5-V5 and OVCAR5-V5-CT45 cell line pair with or without carboplatin treatment (5 μM) at day 3, 5, and 7. Data are means+/−s.e.m. of 5 independent replicates (right panel). Representative cells are shown left. C, CT45 positive 59M cells were collected and processed for a chromatin segregation assay as detailed in the Methods. PP4 complex members, KAP1, and HDAC2 were detected by western blot. D, Volcano plot of chromatin-immunoprecipitation mass spectrometry (ChIP-MS) results for the V5-tag in OVCAR5-V5-CT45 vs. OVCAR5-V5 cell line. Fold enrichment of V5-tagged CT45 over control cell line (V5 tag alone) is plotted against the t-test p-value (−log10). Dashed lines indicate significance thresholds (FDR<0.01, s0=2). […] Most significant pathways are ranked by enrichment false-discovery rate. F, Fold change in nuclear sizes of OVCAR5-V5-CT45 and OVCAR5-V5 cells at day 5 with carboplatin (5 μM) treatment normalized to untreated cells. Representative DAPI images are shown in upper panel. Bar plots represent nuclear sizes from 5 independent experiments. Scale ar=[…]. Data are means+/−s.e.m. […]

In test [2] the test system is interaction of CT45 with heterochromatin-associated PP4. Put plainly: ChIP-MS of V5-tagged CT45 ± carboplatin. The format is cell-based, human. The conditions noted are these: OVCAR5-V5-CT45 ± carboplatin. On the procedure: For chromatin immunoprecipitation coupled to mass spectrometry (ChIP-MS), freshly harvested cells were crosslinked with 1% formaldehyde for 10 min in PBS. Cells were lysed in IP Buffer (50 mM Tris-HCl (pH 8), 100 mM NaCl, 5 mM EDTA (pH 8), 0.3% SDS, 1.7% Triton-X-100, supplemented with EDTA-free protease inhibitor cocktail (Roche) and phosphatase inhibitor cocktail (Roche)) and chromatin sonicated to an average size of 200-400 bp. 1 mg of total cell lysate was incubated with 3 μg of respective antibody overnight at 4° C. under constant rotation. The next day, 30 μl of protein G-coupled agarose beads (Cell signaling technology) were added and incubated for 3 h at 4° C. under constant rotation. Antibody-bait complexes were then washed three times with low salt wash buffer (50 mM HEPES pH 7.5, 140 mM NaCl, 1% Triton), once with high salt wash buffer (50 mM HEPES pH 7.5, 500 mM NaCl, 1% Triton) and twice with TBS. Elution was carried out by a partial on-bead digest as recently described. Peptides were finally desalted with C18 StageTips prior to MS analysis.

Test [3] deals with chromatin enrichment of KAP-1 or PP4. Put plainly: Chromatin fractionation. The format is cell-based, human. The conditions noted are these: OVCAR5-V5-CT45 cell line. The method, then:
Chromatin fractionation was performed as described previously. Soluble proteins and proteins bound to open or compacted chromatin were separated by stepwise increasing the salt and nuclease (MNase) treatment. 1E7 cells were washed with PBS and 1 ml low salt buffer (LSB: 10 mM HEPES [pH 7.4], 25 mM KCl, 10 mM NaCl, 1 mM MgCl2, 0.1 mM EDTA). Pelleted cells were then resuspended in six times the packed cell volume (PCV) of LSB supplemented with protease and phosphatase inhibitor cocktail (Roche). After snap freezing in liquid nitrogen, samples were quickly thawed and immediately centrifuged (10 min at 10,000 rpm). The pellet was resuspended in a volume of high-salt buffer (HSB: 50 mM Tris-HCl [pH 8.0], 5% [v/v] glycerol, 1 mM EDTA, 10 mM MgCl2, 400 mM KCl, supplemented with protease and phosphatase inhibitor cocktail), equal to 0.25 V of LSB. After centrifugation at 10,000 rpm (supernatant=nucleoplasmic fraction), the pellet was resuspended in a volume nuclease buffer containing 10 U/ml MNase (NEB) and incubated at 37° C. for 10 min and centrifuged for 5 min at 10,000 rpm (supernatant=chromatin fraction 1). The pellet was then resuspended in the same volume of nuclease buffer containing 100 U/ml MNase and incubated another 45 min at 37° C. before an equal V of solubilization buffer (nuclease buffer+2% [v/v] NP-40, 2% [v/v] Triton X-100, 600 mM NaCl) was added. […]

Take `N.N.O=C([O-])C1(C(=O)[O-])CCC1.[Pt+2]` [carboplatin]: in test [1], the tumor growth result was “no effect”. Besides, the nuclear size result in the test on OVCAR5-V5-CT45 cells is “larger nuclei”. The “interaction of CT45 with heterochromatin-associated PP4” value in test [2] is “not affected”. Further, in test [3], the “chromatin enrichment of KAP-1 or PP4” value is listed as “did not find”.
